Results from patent publication US20100041089A1, “IMPROVED METHOD FOR DETECTING CHEMICAL […]” (priority 2006, published 2010).

Tested on: yeast genes (expressed mRNA)
Assay: DNA chip measurement of expressed mRNA of yeast genes after culture with a toxic chemical substance
Format: cell-based, Saccharomyces cerevisiae S288C
Details: for level of expressed mRNA in the presence of chemical substance / level in the absence of chemical substance: cultured two hours with the chemical substance; for The level of expressed mRNA in the presence of chemical substance/The level of expressed mRNA in the absence of chemical substance: cultured two hours with substance
Method: Yeast (Saccharomyces cerevisiae S288C (a SUC2mal mel gap2 CUP1)) were cultured at 25° C. on YPD medium (yeast extract 1%, polypeptone 2%, glucose 2%). One of toxic chemical substances was added to the cell at logarithmic growth phase, and the cell was further cultured for two hours. Cell was cultured without any chemical substance in the same condition, and was used as a control. Concentrations of the chemical substances were defined to inhibit the growth of the yeast but not lead to death.
After the completion of cultivation, the culture was centrifuged to collect the cells. To the cells, sodium acetate buffer (50 mM sodium acetate, 10 mM EDTA, 1% SDS) was added, and the mixture was shaken at 65° C. for five minutes, followed by returning to room temperature, and obtaining the supernatant, which procedure was repeated two times. To the supernatant, ½ amount of a solution of phenol/chloroform (1:1) was added, and the mixture was centrifuged to give a supernatant, an equal amount of chloroform was added, and the mixture was centrifuged to give a supernatant. To the supernatant, an equal amount of isopropanol containing 0.3 M sodium acetate was added, and the mixture was allowed to stand at room temperature for 30 minutes, after which the mixture was centrifuged to give sediment of the whole RNAs. Seventy % ethanol was added to the sediment, and the mixture was again centrifuged to give sediment, which was then dried and dissolved in water. mRNA was isolated from the whole RNAs as followings. In view of the fact that a poly A chain is attached to the 3′ terminus of mRNA, a polynucleotide having a poly T structure which was immobilized on the surface of latex beads was used to trap the mRNA, and then the mRNA was washed and eluted with spine column (Oligotex-dT30<Super>mRNA Purification Kit, Takara). Reverse transcription of the mRNA was conducted with a reverse transcriptase (Super Script II Reverse Transcriptase; catalogue No. 18064-014, GibcoBRL) using fluorescence-labeled nucleotides to give cDNAs that were introduced with Cy3-dUTP or Cy5-dUTP during the reverse transcription.
The labeled cDNAs were dissolved in TE buffer (10 mM Tris-HCl/1 mM EDTA, pH 8.0), and the solution was dropped on the DNA chip containing the whole genes of yeast (DNA Chip Research Inc. Japan) so that the cDNAs were hybridized on the DNA chip at 65° C. for over 12 hours. The fluoresces intensity of the DNA chip was read with a scanner, and the ratio relative to the fluorescence intensity resulting from the absence of chemical substance was estimated as the following, which is shown in Tables 1 to 9.
In the Tables, “Intensity” indicated in the rightmost column is a value of the level of expressed mRNA of each gene in control cells as divided by the average level of the expressions of the whole genes. A gene of which mRNA level is lower in control, and is higher in cases of addition of chemical substance, is especially useful in the detection of toxic substances.
Here, when a ratio of an amount of mRNA expressed in the presence of the chemical substance to an amount of mRNA expressed in the absence of the chemical substance is two or more, then it is considered significant.

[Cl][Pb][Cl] [(4), PbCl2]
The level of expressed mRNA in the presence of chemical substance/The level of expressed mRNA in the absence of chemical substance, yeast gene YBR036C (gene YBR036C, Metabolism protein genes, DNA chip fluorescence ratio): 1.2 | The level of expressed mRNA in the presence of chemical substance/The level of expressed mRNA in the absence of chemical substance, yeast gene YBR298C (gene YBR298C, Metabolism protein genes, DNA chip fluorescence ratio): 2.3 | The level of expressed mRNA in the presence of chemical substance/The level of expressed mRNA in the absence of chemical substance, yeast gene YDL067C (gene YDL067C (mitochondria-located protein gene), yeast cultured two hours with chemical substance, DNA chip fluorescence ratio to control): 1.3 | The level of expressed mRNA in the presence of chemical substance/The level of expressed mRNA in the absence of chemical substance, yeast gene YDL078C (gene YDL078C, Metabolism protein genes, DNA chip fluorescence ratio): 0.8 | The level of expressed mRNA in the presence of chemical substance/The level of expressed mRNA in the absence of chemical substance, yeast gene YDL215C (gene YDL215C, Metabolism protein genes, DNA chip fluorescence ratio): 1.6 | The level of expressed mRNA in the presence of chemical substance/The level of expressed mRNA in the absence of chemical substance, yeast gene YDR079W (gene YDR079W (mitochondria-located protein gene), yeast cultured two hours with chemical substance, DNA chip fluorescence ratio to control): 1.1 | The level of expressed mRNA in the presence of chemical substance/The level of expressed mRNA in the absence of chemical substance, yeast gene YDR297W (gene YDR297W, Metabolism protein genes, DNA chip fluorescence ratio): 1.1 | The level of expressed mRNA in the presence of chemical substance/The level of expressed mRNA in the absence of chemical substance, yeast gene YDR387C (gene YDR387C, Metabolism protein genes, DNA chip fluorescence ratio): 2.2 | The level of expressed mRNA in the presence of chemical substance/The level of expressed mRNA in the absence of chemical substance, yeast gene YGL035C (gene YGL035C, Metabolism protein genes, DNA chip fluorescence ratio): 1.4 | The level of expressed mRNA in the presence of chemical substance/The level of expressed mRNA in the absence of chemical substance, yeast gene YGR062C (gene YGR062C (mitochondria-located protein gene), yeast cultured two hours with chemical substance, DNA chip fluorescence ratio to control): 1.4 | The level of expressed mRNA in the presence of chemical substance/The level of expressed mRNA in the absence of chemical substance, yeast gene YGR287C (gene YGR287C, Metabolism protein genes, DNA chip fluorescence ratio): 1.5 | The level of expressed mRNA in the presence of chemical substance/The level of expressed mRNA in the absence of chemical substance, yeast gene YJL070C (gene YJL070C, Metabolism protein genes, DNA chip fluorescence ratio): 1.2 | The level of expressed mRNA in the presence of chemical substance/The level of expressed mRNA in the absence of chemical substance, yeast gene YJL096W (gene YJL096W (mitochondria-located protein gene), yeast cultured two hours with chemical substance, DNA chip fluorescence ratio to control): 1.3 | The level of expressed mRNA in the presence of chemical substance/The level of expressed mRNA in the absence of chemical substance, yeast gene YJL180C (gene YJL180C (mitochondria-located protein gene), yeast cultured two hours with chemical substance, DNA chip fluorescence ratio to control): 1.3 | The level of expressed mRNA in the presence of chemical substance/The level of expressed mRNA in the absence of chemical substance, yeast gene YKR009C (gene YKR009C, Metabolism protein genes, DNA chip fluorescence ratio): 0.9 | The level of expressed mRNA in the presence of chemical substance/The level of expressed mRNA in the absence of chemical substance, yeast gene YLR295C (gene YLR295C (mitochondria-located protein gene), yeast cultured two hours with chemical substance, DNA chip fluorescence ratio to control): 1.7 | The level of expressed mRNA in the presence of chemical substance/The level of expressed mRNA in the absence of chemical substance, yeast gene YLR351C (gene YLR351C, Metabolism protein genes, DNA chip fluorescence ratio): 1.5 | The level of expressed mRNA in the presence of chemical substance/The level of expressed mRNA in the absence of chemical substance, yeast gene YLR375W (gene YLR375W, Metabolism protein genes, DNA chip fluorescence ratio): 0.9 | The level of expressed mRNA in the presence of chemical substance/The level of expressed mRNA in the absence of chemical substance, yeast gene YMR023C (gene YMR023C (mitochondria-located protein gene), yeast cultured two hours with chemical substance, DNA chip fluorescence ratio to control): 1.9 | The level of expressed mRNA in the presence of chemical substance/The level of expressed mRNA in the absence of chemical substance, yeast gene YMR267W (gene YMR267W (mitochondria-located protein gene), yeast cultured two hours with chemical substance, DNA chip fluorescence ratio to control): 0.9 | The level of expressed mRNA in the presence of chemical substance/The level of expressed mRNA in the absence of chemical substance, yeast gene YMR267W (gene YMR267W, Metabolism protein genes, DNA chip fluorescence ratio): 0.9 | The level of expressed mRNA in the presence of chemical substance/The level of expressed mRNA in the absence of chemical substance, yeast gene YMR278W (gene YMR278W, Metabolism protein genes, DNA chip fluorescence ratio): 1.0 | The level of expressed mRNA in the presence of chemical substance/The level of expressed mRNA in the absence of chemical substance, yeast gene YMR293C (gene YMR293C, Metabolism protein genes, DNA chip fluorescence ratio): 2.2 | The level of expressed mRNA in the presence of chemical substance/The level of expressed mRNA in the absence of chemical substance, yeast gene YNL073W (gene YNL073W (mitochondria-located protein gene), yeast cultured two hours with chemical substance, DNA chip fluorescence ratio to control): 1.7 | The level of expressed mRNA in the presence of chemical substance/The level of expressed mRNA in the absence of chemical substance, yeast gene YNR072W (gene YNR072W, Metabolism protein genes, DNA chip fluorescence ratio): 0.7 | The level of expressed mRNA in the presence of chemical substance/The level of expressed mRNA in the absence of chemical substance, yeast gene YOL096C (gene YOL096C, Metabolism protein genes, DNA chip fluorescence ratio): 1.6 | The level of expressed mRNA in the presence of chemical substance/The level of expressed mRNA in the absence of chemical substance, yeast gene YOR180C (gene YOR180C, Metabolism protein genes, DNA chip fluorescence ratio): 1.0 | The level of expressed mRNA in the presence of chemical substance/The level of expressed mRNA in the absence of chemical substance, yeast gene YOR316C (gene YOR316C (mitochondria-located protein gene), yeast cultured two hours with chemical substance, DNA chip fluorescence ratio to control): 1.5 | The level of expressed mRNA in the presence of chemical substance/The level of expressed mRNA in the absence of chemical substance, yeast gene YOR363C (gene YOR363C, Metabolism protein genes, DNA chip fluorescence ratio): 1.3 | The level of expressed mRNA in the presence of chemical substance/The level of expressed mRNA in the absence of chemical substance, yeast gene YPL040C (gene YPL040C (mitochondria-located protein gene), yeast cultured two hours with chemical substance, DNA chip fluorescence ratio to control): 1.7 | The level of expressed mRNA in the presence of chemical substance/The level of expressed mRNA in the absence of chemical substance, yeast gene YPL134C (gene YPL134C (mitochondria-located protein gene), yeast cultured two hours with chemical substance, DNA chip fluorescence ratio to control): 1.6 | The level of expressed mRNA in the presence of chemical substance/The level of expressed mRNA in the absence of chemical substance, yeast gene YPR184W (gene YPR184W, Metabolism protein genes, DNA chip fluorescence ratio): 2.2 | level of expressed mRNA in the presence of chemical substance / level in the absence of chemical substance (yeast gene YAL018C): 11.3 | The level of expressed mRNA in the presence of chemical substance/The level of expressed mRNA in the absence of chemical substance (yeast gene YAL053W): 2.1 | level of expressed mRNA in the presence of chemical substance / level in the absence of chemical substance (yeast gene YAR047C): 0.7 | level of expressed mRNA in the presence of chemical substance / level in the absence of chemical substance (yeast gene YAR064W): 2.8 | level of expressed mRNA in the presence of chemical substance / level in the absence of chemical substance (yeast gene YBL044W): 0.8 | The level of expressed mRNA in the presence of chemical substance/The level of expressed mRNA in the absence of chemical substance (yeast gene YBL048W): 2.8 | The level of expressed mRNA in the presence of chemical substance/The level of expressed mRNA in the absence of chemical substance (yeast gene YBL107C): 1.5 | level of expressed mRNA in the presence of chemical substance / level in the absence of chemical substance (yeast gene YBR012C): 0.8 | level of expressed mRNA in the presence of chemical substance / level in the absence of chemical substance (yeast gene YBR066C): 1.6 | level of expressed mRNA in the presence of chemical substance / level in the absence of chemical substance (yeast gene YBR124W): 0.4 | level of expressed mRNA in the presence of chemical substance / level in the absence of chemical substance (yeast gene YBR162C): 0.8 | level of expressed mRNA in the presence of chemical substance / level in the absence of chemical substance (yeast gene YBR287W): 2.4 | level of expressed mRNA in the presence of chemical substance / level in the absence of chemical substance (yeast gene YCL056C): 1.0 | level of expressed mRNA in the presence of chemical substance / level in the absence of chemical substance (yeast gene YCR007C): 2.9 | level of expressed mRNA in the presence of chemical substance / level in the absence of chemical substance (yeast gene YDL046W): 1.3 | The level of expressed mRNA in the presence of chemical substance/The level of expressed mRNA in the absence of chemical substance (yeast gene YDL072C): 2.1 | The level of expressed mRNA in the presence of chemical substance/The level of expressed mRNA in the absence of chemical substance (yeast gene YDL204W): 3.4 | The level of expressed mRNA in the presence of chemical substance/The level of expressed mRNA in the absence of chemical substance (yeast gene YDL222C): 3.9 | level of expressed mRNA in the presence of chemical substance / level in the absence of chemical substance (yeast gene YDR090C): 1.2 | level of expressed mRNA in the presence of chemical substance / level in the absence of chemical substance (yeast gene YDR128W): 0.9
